{"source": "patent US20220089679A1", "about": "“FUSION PROTEIN WITH IMMUNOSUPPRESSIVE ACTIVITY” (FUNDACIÓ INSTITUT D'INVESTIGACIÓ BIOMÈDICA DE BELL, priority 2019, published 2022)", "key": {"NZB/W F1 hybrid mice": {"tested_on": "NZB/W F1 hybrid mice", "assay": "Murine lupus nephritis", "type": "in vivo", "conditions": "for mortality / survival: up to the end of experiments at 32 weeks, Hybri 20 mg/kg ip days 0, 4, 14, 28, 56, 84, CYP 50 mg/kg ip every 10 days, versus PBS", "source_text": "NZB/W F1 hybrid mice spontaneously develop a disease closely resembling human systemic lupus erythematous (SLE) with severe renal involvement, which is the main cause of animal mortality. In fact, this model, with a well-characterized evolution of renal disease, has been widely used to study the therapeutic potential of several new agents for SLE, as previously reported (Ripoll et al., “CD40 gene silencing reduces the progression of experimental lupus nephritis modulating local milieu and systemic mechanisms”, PLoS One, 2013, vol. 8(6)).\nFrom 20 weeks of age, and close to a potential therapeutic schedule in humans, mice (n=9) received Hybri intraperitoneally (ip) at 20 mg/kg on days 0, 4, 14, 28, 56 and 84; or CYP (n=8) ip. at 50 mg/kg every 10 days; or 200 μl PBS ip. twice a week (n=8)."}, "[1]": {"tested_on": "Wistar rats with 40 minutes of bilateral renal ischemia", "method": "Rats were sham operated or suffered from renal warm ischemia and were treated with the fusion protein of the invention of sequence SEQ ID NO: 6 (Hybri) at 20 mg/kg ip. 24 hours before renal ischemia; and in the control ischemic group rats received PBS."}, "[2]": {"tested_on": "CD3+ T cell proliferation", "assay": "Mixed lymphocyte reaction (MLR) in vitro proliferation assay", "type": "cell-based, human", "conditions": "for decrease of CD3+ cells proliferation: 6 days, as compared to spontaneous proliferation without immunosuppressive agents (MLR), two responder subjects", "description": "Mixed Lymphocyte reactions (MLR) were performed in the presence or absence of different immunosuppressive drugs to test their inhibitory effect on T cell proliferation, following conventional methodology (Levitsky J, et al., “Allospecific regulatory effects of sirolimus and tacrolimus in the human mixed lymphocyte reaction”, Transplantation, 2011, vol. 91(2), pp. 199-206).\nBriefly, peripheral blood mononuclear cells (PBMC) from healthy controls were used as responder cells. CD3^+-depleted splenocytes extracted from deceased donors and mature dendritic cells (DCs) were extracted with CD2 positive selection cocktail (Stem Cell Technologies, France) following manufacturer's instructions and they were used as stimulators in the assay. PBMC from peripheral blood samples and splenocytes were isolated by standard Ficoll density gradient centrifugation (Bargalló M E. et al., “Utility of Systematic Isolation of immune cell subsets from HIV-infected individuals for miRNA profiling”, J Immunol Methods, 2017, vol. 442, pp. 12-19). In order to obtain mature DCs, monocytes were isolated from PBMC by negative selection with Human monocyte enrichment kit (Stem Cell Technologies, France) following manufacturer's instructions, cultured for 6 days with complete Ex-vivo medium supplemented with 2% of human serum (Sigma Aldrich), GMSF (15 ng/ml; R&D) and IL-4 (10 ng/ml; Sigma Aldrich) (37° C. 5% CO2), and stimulated with LPS (1 μg/ml; Sigma Aldrich) for 24 h.\nFirst, PBMC were stained with carboxyfluorescein succinimidyl ester (CFSE) (Lloberas N, et al., “Dendritic cells phenotype fitting under hypoxia or lipopolysaccharide; adenosine 5′-triphosphate-binding cassette transporters far beyond an efflux pump”, Clin Exp Immunol., 2013, vol. 172(3), pp. 444-54). […] At day 6, cells were harvested and stained for CD3-APC and CD4-PE (BD Bioscience, San Jose, Calif., USA) 20 minutes in the dark following manufacturer's instructions, and T-cell proliferation were analyzed by flow cytometry (BD FACS CANTO 11, San Jose, Calif., USA) using Facs Diva software and following manufacturer's instructions.\nThe in vitro proliferation assay was performed with high HLA-mismatch combination between 2 stimulator DCs and two corresponding responder subjects ([…], S2) T cells."}, "[3]": {"tested_on": "Lewis rats transplanted with a single kidney from a Wistar donor rat", "assay": "Rat renal allotransplantation (life-sustaining renal transplantation model)", "type": "in vivo", "conditions": "500 μg intraperitoneally 2 hours before transplantation, then daily for 6 days, followed for 3 weeks, versus non-treated group, p<0.05", "source_text": "A model of life-sustaining renal transplantation previously described (De Ramon et al., “CD154-CD40 T-cell co-stimulation pathway is a key mechanism in kidney ischemia-reperfusion injury”, Kidney Int., 2015, vol. 88(3), pp. 538-49) was used to test the therapeutic effects of the fusion protein. It is known that in experimental renal transplantation with highly alloreactive donor-recipient combination, severe acute rejection results in high recipients' mortality.\nBriefly, Lewis rats were bi-nephrectomized and subsequently transplanted with a single kidney from a Wistar donor rat. […] In the control group, recipient Lewis rats received no treatment. Transplanted rats were followed for 3 weeks."}}, "data": [{"compound": "O=P1(N(CCCl)CCCl)NCCCO1", "note": "(stereo not shown) [CYP, cyclophosphamide, reference compound]", "values": [{"measurement": "albuminuria (albuminuria/creatininuria ratio)", "setting": "NZB/W F1 hybrid mice; at 3 months of therapy", "value": "reducing albuminuria"}, {"measurement": "mortality / survival", "setting": "NZB/W F1 hybrid mice", "value": "no mortality"}]}, {"compound": "Hybri: fusion protein of human PDL2 extracellular domain, (GGGGS)3 linker, human CTLA4 extracellular domain, Fc of human IgG, poly-histidine tag; SEQ ID NO: 6", "values": [{"measurement": "anti-DNA antibodies in serum", "setting": "NZB/W F1 hybrid mice; FIG. 8B", "value": "effectively reduced anti-DNA antibodies to similar levels than CYP"}, {"measurement": "albuminuria (albuminuria/creatininuria ratio)", "setting": "NZB/W F1 hybrid mice; mouse, in vivo", "value": "as efficient as CYP in reducing albuminuria"}, {"measurement": "mortality / survival", "setting": "NZB/W F1 hybrid mice", "value": "no mortality"}, {"measurement": "mortality / survival", "setting": "NZB/W F1 hybrid mice; listed as fusion polypeptide", "value": "strongly improved the survival"}, {"measurement": "preservation of renal structure", "setting": "[1]; 20 mg/kg ip. 24 hours before renal ischemia", "value": "better preservation of renal structure"}, {"measurement": "renal function (serum creatinine levels)", "setting": "[1]; 20 mg/kg ip. 24 hours before renal ischemia, 24 hours after warm ischemia, versus PBS, p=0.0038", "value": "significantly improved renal function"}, {"measurement": "T cells with regulatory phenotype (Tregs) per high power field in renal parenchyma", "setting": "[1]; compared to non-treated ischemic kidneys", "value": "increased"}, {"measurement": "renal failure in sham operated rats", "setting": "[1]; rat, in vivo", "value": "did not develop renal failure"}, {"measurement": "inhibition of mature CD3+ T cell proliferation (in words)", "setting": "[2]; 10 μg/mL and 20 μg/mL, compared with tacrolimus (10 nM), FIG. 5", "value": "strongly inhibit"}, {"measurement": "decrease of CD3+ cells proliferation", "setting": "[2]; 10 μg/mL", "value": "97%-99%"}, {"measurement": "decrease of CD3+ cells proliferation", "setting": "[2]; 20 μg/mL", "value": "94%-99%"}, {"measurement": "reduction in T cell proliferation (immunosuppressive effect, FIG. 5)", "setting": "[2]; summary statement of FIG. 5", "value": "nearly complete"}, {"measurement": "survival", "setting": "[3]", "value": "significantly higher survival"}, {"measurement": "survival", "setting": "[3]; listed as fusion polypeptide", "value": "strongly improved the survival"}]}]}
